Laboratory results reported in ChEMBL document CHEMBL1157764, “Conserved high activity binding peptides are involved in adhesion of two detergent-resistant membrane-associated merozoite proteins to red blood cells during invasion” (J Med Chem, 2010).

Species on record: Homo sapiens
Assay: Binding affinity to RBC membrane receptor in human RBCs assessed as specific binding activity measured as ratio of specifically bound peptide/added peptide by gamma counter

Row | Substance | Activity [%]
1 | H-EEQENEDSTDAEAIDKEEVEY-OH | > 2
2 | H-FEVRLPKDIKVTENCFRYSF-OH | > 2
3 | H-GTAMESLLYLNNNNVKKLID-OH | > 2
4 | H-ISLLLNKKYDSFEIKDVLED-OH | > 2
5 | H-ITIEELFKSAIKTEEMKDNKY-OH | < 2
6 | H-KETQEKSDQEPSQNIQEDNSY-OH | > 2
7 | H-LGYDNCTIEVNKTVNGIDWN-OH | > 2

Continued, values first:

Row | Activity [%] | Substance
8 | > 2 | H-EEIGDESTDSSSMEIQDSTSY-OH
9 | > 2 | H-EKKDVKVSGNNNIAVVYSIF-OH
10 | > 2 | H-ILYLEKNNLFNTQASCIKSY-OH
11 | > 2 | H-KYILVCENHSQNYINVVDQE-OH
12 | > 2 | H-LFETFDPQYLNTEFNGVSHY-OH
13 | > 2 | H-LNEDLVLLYNDFPFDNGMIS-OH
